# Activity calls are given as the source filed them. No cut-off for these calls is given here.
# Tests used:
# [1] = Cytotoxicity against human THP-1 cells by resazurin dye based assay; format: toxicity, cell-based
# [2] = Cytotoxicity against human Caco-2 cells by resazurin dye based assay; format: toxicity, cell-based
# [3] = molecular target: T1, Protein phosphatase 1A (Homo sapiens, UniProt P35813); test: Inhibition of recombinant human PPM1A using pNPP as substrate preincubated for 15 mins followed by substrate addition measured after 20 mins by absorbance based assay
# T1 sequence (P35813 whole entry): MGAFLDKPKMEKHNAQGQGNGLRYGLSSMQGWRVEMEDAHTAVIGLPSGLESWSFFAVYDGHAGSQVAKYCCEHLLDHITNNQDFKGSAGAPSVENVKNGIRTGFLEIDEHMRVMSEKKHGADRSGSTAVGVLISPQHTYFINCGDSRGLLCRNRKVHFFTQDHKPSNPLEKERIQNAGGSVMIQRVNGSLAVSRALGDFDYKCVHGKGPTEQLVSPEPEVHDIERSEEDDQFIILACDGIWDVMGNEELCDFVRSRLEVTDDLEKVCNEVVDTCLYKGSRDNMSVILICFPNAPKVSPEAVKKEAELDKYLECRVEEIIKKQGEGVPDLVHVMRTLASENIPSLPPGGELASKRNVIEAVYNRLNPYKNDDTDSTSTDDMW
# [4] = system: dsDNA; test: Binding affinity to dsDNA (unknown origin) of 10 uM assessed as reduction in fluorescence intensity at 5 uM relative to control; format: nucleic-acid assay; set-up: scale not given: the % may be the effect or the level left
# [5] = system: THP-1; test: Induction of DNA damage in human THP-1 macrophages assessed as increase in gamma-H2AX at 10 uM incubated for 24 hrs by Western blot analysis; format: toxicity, cell-based; settings: thp-1, 24 h
# [6] = system: dsDNA; test: Binding affinity to dsDNA (unknown origin) of 5 uM assessed as reduction in fluorescence intensity at 5 uM relative to control; format: nucleic-acid assay; set-up: scale not given: the % may be the effect or the level left
# [7] = system: THP-1; test: Induction of DNA damage in human THP-1 monocytes assessed as increase in gamma-H2AX at 1 uM incubated for 24 hrs by Western blot analysis; format: toxicity, cell-based; settings: thp-1, 24 h
# [8] = system: THP-1; test: Cytotoxicity against human THP-1 monocytes assessed as cell viability at 10 uM incubated for 24 hrs by flow cytometry; format: toxicity, cell-based; settings: thp-1, 24 h
# [9] = Toxicity in BALB/c mouse assessed as increase in irritability at 100 mg/kg, ip administered daily for 14 days; format: organism-based; settings: in vivo, 336 h, time 14 day
# [10] = system: THP-1; test: Induction of autophagy in human THP-1 macrophages assessed as increase in p62 phosphorylation at S403 incubated for 24 hrs in presence of bafilomycin by Western blot analysis; format: functional, cell-based; settings: dose 0.25-8 µM
# [11] = Toxicity in BALB/c mouse assessed as visible abnormality at 12.5 to 50 mg/kg, ip administered daily for 14 days; format: organism-based; settings: in vivo, 336 h, dose 12.5-50 mg/kg, time 14 day
# [12] = Toxicity in BALB/c mouse infected with Mycobacterium tuberculosis mc2 6206 assessed as body weight loss at 12.5 to 50 mg/kg, ip administered daily for 8 days; format: organism-based; settings: in vivo, 192 h, dose 12.5-50 mg/kg, time 8 day
# [13] = system: THP-1; test: Induction of autophagy in human THP-1 macrophages assessed as increase in lipidated LC3-II level at 0.25 to 8 uM incubated for 24 hrs in presence of bafilomycin by Western blot analysis; format: functional, cell-based; settings: dose 0.25-8 µM
# [14] = Cmax in ICR mouse at 10 mg/kg, po measured for 24 hrs; format: ADME, organism-based; settings: in vivo
# [15] = system: THP-1; test: Cytotoxicity against human THP-1 monocytes assessed as cell viability at 0.1 to 10 uM incubated for 24 hrs by flow cytometry; format: toxicity, cell-based; settings: thp-1, 24 h, dose 0.1-10 µM
# [16] = Toxicity in BALB/c mouse assessed as increase in brain weight at higher concentration administered intraperitoneally daily for 14 days; format: tissue-based; settings: in vivo, ip, 336 h, time 14 day
# [17] = Toxicity in BALB/c mouse assessed as change in kidney weight at 12.5 to 100 mg/kg, ip administered daily for 14 days; format: organism-based; settings: in vivo, 336 h, dose 12.5-100 mg/kg, time 14 day
# [18] = Toxicity in BALB/c mouse assessed as change in lung weight at 12.5 to 100 mg/kg, ip administered daily for 14 days; format: organism-based; settings: in vivo, 336 h, dose 12.5-100 mg/kg, time 14 day
# [19] = Oral bioavailability in ICR mouse at 10 mg/kg measured for 24 hrs; format: ADME, organism-based; settings: in vivo
# [20] = Toxicity in BALB/c mouse assessed as increase in stress level at 100 mg/kg, ip administered daily for 14 days; format: organism-based; settings: in vivo, 336 h, time 14 day
# [21] = AUClast in ICR mouse at 2 mg/kg, iv measured for 24 hrs; format: ADME, organism-based; settings: in vivo
# [22] = Toxicity in BALB/c mouse assessed as body weight change at 12.5 to 100 mg/kg, ip administered daily for 14 days; format: organism-based; settings: in vivo, 336 h, dose 12.5-100 mg/kg, time 14 day
# [23] = AUC (infinity) in ICR mouse at 2 mg/kg, iv measured for 24 hrs; format: ADME, organism-based; settings: in vivo
# [24] = Toxicity in BALB/c mouse assessed as change in liver weight at 12.5 to 100 mg/kg, ip administered daily for 14 days; format: organism-based; settings: in vivo, 336 h, dose 12.5-100 mg/kg, time 14 day
# [25] = Toxicity in BALB/c mouse infected with Mycobacterium tuberculosis mc2 6206 assessed as visible toxic signs at 12.5 to 50 mg/kg, ip administered daily for 8 days; format: organism-based; settings: in vivo, 192 h, dose 12.5-50 mg/kg, time 8 day
# [26] = AUC (infinity) in ICR mouse at 10 mg/kg, po measured for 24 hrs; format: ADME, organism-based; settings: in vivo
# [27] = Toxicity in BALB/c mouse assessed as change in spleen weight at 12.5 to 100 mg/kg, ip administered daily for 14 days; format: organism-based; settings: in vivo, 336 h, dose 12.5-100 mg/kg, time 14 day
# [28] = system: THP-1; test: Induction of DNA damage in human THP-1 macrophages assessed as increase in gamma-H2AX at 0.1 to 10 uM incubated for 24 hrs by Western blot analysis; format: toxicity, cell-based; settings: thp-1, 24 h, dose 0.1-10 µM
# [29] = system: Mycobacterium tuberculosis; test: Inhibition of Mycobacterium tuberculosis mc2 6206 burden in lung of BALB/c mouse infected with at 12.5 to 50 mg/kg, ip administered daily for 8 days; format: functional, organism-based; settings: dose 12.5-50 mg/kg, time 8.0 day
# [30] = Half life in ICR mouse at 10 mg/kg, po measured for 24 hrs; format: ADME, organism-based; settings: in vivo
# [31] = system: Mycobacterium tuberculosis; test: Anti-mycobacterial activity against Mycobacterium tuberculosis mc2 6206 assessed as bacterial growth inhibition at 20 uM incubated for 5 days by resazurin dye based assay; format: functional, organism-based; settings: time 5.0 day
# [32] = AUClast in ICR mouse at 10 mg/kg, po measured for 24 hrs; format: ADME, organism-based; settings: in vivo
# [33] = system: THP-1; test: Cytotoxicity against human THP-1 macrophages assessed as cell viability at 0.1 to 10 uM incubated for 24 hrs by flow cytometry; format: toxicity, cell-based; settings: thp-1, 24 h, dose 0.1-10 µM
# [34] = Clearance in ICR mouse at 2 mg/kg, iv measured for 24 hrs; format: ADME, organism-based; settings: in vivo
# [35] = system: Mycobacterium tuberculosis; test: Anti-mycobacterial activity against Mycobacterium tuberculosis mc2 6206 infected in BALB/c mouse assessed as reduction in bacterial burden in spleen administered intraperitoneally daily for 8 days; format: functional, organism-based; settings: dose 12.5-50 mg/kg, route ip, time 8.0 day
# [36] = system: dsDNA; test: Binding affinity to dsDNA (unknown origin) assessed as reduction in fluorescence intensity at 5 uM relative to control; format: nucleic-acid assay; set-up: scale not given: the % may be the effect or the level left
# [37] = Half life in ICR mouse at 2 mg/kg, iv measured for 24 hrs; format: ADME, organism-based; settings: in vivo
# [38] = system: THP-1; test: Induction of DNA damage in human THP-1 monocytes assessed as increase in gamma-H2AX at 0.1 to 10 uM incubated for 24 hrs by Western blot analysis; format: toxicity, cell-based; settings: thp-1, 24 h, dose 0.1-10 µM
# [39] = Tmax in ICR mouse at 10 mg/kg, po measured for 24 hrs; format: ADME, organism-based; settings: in vivo
smiles,measurement,setting,value
COc1ccc2c(c1)c[n+](CCO)c1ccc(Br)cc21,CC50,[1],68 µM
same,CC50,[2],185 µM
same,IC50,[3],4.51 µM
C[n+]1cc2c3c(ccc2c2ccc4cc5c(cc4c21)OCO5)OCO3 [SANGUINARIUM],Activity,[4],93%
same,Activity,[5],Toxic
same,Activity,[6],84%
same,Activity,[7],Toxic
same,Activity,[8],Toxic
Cc1ccc2c(c1)c[n+](CCO)c1ccc(F)cc21,IC50,[3],> 20 µM
COc1ccc2c(c1)c[n+](C(C)CO)c1ccc(F)cc21 (stereo unspecified),IC50,[3],> 10 µM
COc1ccc2c(c1)c[n+](C(CO)CO)c1ccc(F)cc21,IC50,[3],> 20 µM
OCC[n+]1cc2cc(OC(F)(F)F)ccc2c2cc(F)ccc21,CC50,[1],> 200 µM
same,CC50,[2],> 200 µM
same,IC50,[3],1.43 µM
COc1cc2c[n+](CCO)c3ccc(F)cc3c2cc1-c1ccc(F)cc1,IC50,[3],> 20 µM
CCOc1ccc2c(c1)c[n+](CCO)c1ccc(OC)cc21,IC50,[3],> 20 µM
COc1ccc2c(c1)c[n+](NCCO)c1ccc(F)cc21,IC50,[3],> 10 µM
COc1cc2c[n+](CCO)c3ccc(F)cc3c2cc1I,IC50,[3],> 20 µM
COc1ccc2c(c1)c[n+](CC(C)O)c1ccc(F)cc21 (stereo unspecified),IC50,[3],> 20 µM
COc1ccc2c(c1)c[n+](Cc1cccc(O)c1)c1ccc(F)cc21,IC50,[3],> 20 µM
COc1cc2c[n+](CCO)c3ccc(F)cc3c2cc1-c1ccc2c(c1)OCO2,IC50,[3],> 20 µM
CCCCOc1ccc2c(c1)c[n+](CCO)c1ccc(F)cc21,IC50,[3],3.56 µM
COc1ccc2c(c1)c1ccc(OC(F)(F)F)cc1c[n+]2CCO,IC50,[3],3.06 µM
COc1cc2c[n+](CCO)c3ccc(F)cc3c2cc1-c1ccc(NC(=O)OC(C)(C)C)cc1,IC50,[3],> 20 µM
COc1ccc2c(c1)c[n+](CCCCO)c1ccc(F)cc21,IC50,[3],> 20 µM
COc1cc2c[n+](CCO)c3ccc(F)cc3c2cc1OC,IC50,[3],> 20 µM
CCOc1ccc2c(c1)c[n+](CCO)c1ccc(F)cc21.[Br-],Activity,[9],Toxic
same,Activity,[10],Dose-Dependent Effect
same,Activity,[11],Non-Toxic
same,Activity,[12],Non-Toxic
same,Activity,[13],Active
same,Cmax,[14],908 ng/mL
same,Activity,[15],Non-Toxic
same,Activity,[16],Toxic
same,Activity,[17],Non-Toxic
same,Activity,[18],Non-Toxic
same,bioavailability,[19],73.7%
same,Activity,[20],Toxic
same,AUC(0-t) at 24 h,[21],206 ng·h/mL
same,Activity,[22],Non-Toxic
same,AUC(0-inf),[23],208 ng·h/mL
same,Activity,[24],Non-Toxic
same,Activity,[25],Non-Toxic
same,CC50,[1],138 µM
same,AUC(0-inf),[26],761 ng·h/mL
same,Activity,[27],Non-Toxic
same,Activity,[28],Non-Toxic
same,inhibition,[29],inactive
same,half-life,[30],46.3 min
same,inhibition,[31],inactive
same,CC50,[2],> 200 µM
same,AUC(0-t) at 24 h,[32],759 ng·h/mL
same,Activity,[33],Non-Toxic
same,clearance,[34],170 mL/min/kg
same,Activity,[35],Dose-Dependent Effect
same,Activity,[36],10%
same,half-life,[37],38 min
same,Activity,[38],Non-Toxic
same,IC50,[3],0.18 µM
same,Ki,[3],590 nM
same,Tmax,[39],15 min

# Reference: ChEMBL document CHEMBL5523733, “Small Molecule Targeting PPM1A Activates Autophagy for Mycobacterium tuberculosis Host-Directed Therapy” (J Med Chem, 2024)
